{"source": "patent US20210382058A1", "about": "“PATIENT SELECTION FOR TREATMENT OF MYC POSITIVE CANCERS WITH INDENOISOQUINOLINES” (Purdue Research Foundation, priority 2020, published 2021)", "key": {"[1]": {"tested_on": "NCI-60 cancer cell lines", "experiment": "NCI-60 cancer cell line drug screen (GI50, MGM)", "assay_type": "cell-based, human", "settings": "Homo sapiens; for GI50: read-out: Antiproliferative Activities [GI50 (μM)]", "experimental": "Cancer cells were incubated with the test compounds at five concentrations ranging from 100 μM to 10 nM for 48 h. […] The approximate average of GI50 values across the entire panel of NCI-60 cancer cell lines for each compound was recorded as the MGM value."}, "[2]": {"tested_on": "MYC protein expression in MCF-7 breast cancer cells", "experiment": "Western blotting of MYC protein level in MCF-7 cells", "assay_type": "cell-based, human", "settings": "Homo sapiens, MCF7; western blotting, MCF-7 cells, 0.5, 1, 2, and 4 μM, 24 hours; read-out: MYC Inhibition", "summary_of_the_method": "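MCF-7 cells were exposed to compounds at 0.5, 1, 2 and 4 μM for 24 hours at 37° C. MYC was detected by immunoblot with ECL, using rabbit anti-MYC (1:1000) and anti-GAPDH (1:2000) as loading control.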"}, "[3]": {"target": "T1, human topoisomerase I (Homo sapiens, UniProt P11387)", "T1 sequence (P11387 1-765)": "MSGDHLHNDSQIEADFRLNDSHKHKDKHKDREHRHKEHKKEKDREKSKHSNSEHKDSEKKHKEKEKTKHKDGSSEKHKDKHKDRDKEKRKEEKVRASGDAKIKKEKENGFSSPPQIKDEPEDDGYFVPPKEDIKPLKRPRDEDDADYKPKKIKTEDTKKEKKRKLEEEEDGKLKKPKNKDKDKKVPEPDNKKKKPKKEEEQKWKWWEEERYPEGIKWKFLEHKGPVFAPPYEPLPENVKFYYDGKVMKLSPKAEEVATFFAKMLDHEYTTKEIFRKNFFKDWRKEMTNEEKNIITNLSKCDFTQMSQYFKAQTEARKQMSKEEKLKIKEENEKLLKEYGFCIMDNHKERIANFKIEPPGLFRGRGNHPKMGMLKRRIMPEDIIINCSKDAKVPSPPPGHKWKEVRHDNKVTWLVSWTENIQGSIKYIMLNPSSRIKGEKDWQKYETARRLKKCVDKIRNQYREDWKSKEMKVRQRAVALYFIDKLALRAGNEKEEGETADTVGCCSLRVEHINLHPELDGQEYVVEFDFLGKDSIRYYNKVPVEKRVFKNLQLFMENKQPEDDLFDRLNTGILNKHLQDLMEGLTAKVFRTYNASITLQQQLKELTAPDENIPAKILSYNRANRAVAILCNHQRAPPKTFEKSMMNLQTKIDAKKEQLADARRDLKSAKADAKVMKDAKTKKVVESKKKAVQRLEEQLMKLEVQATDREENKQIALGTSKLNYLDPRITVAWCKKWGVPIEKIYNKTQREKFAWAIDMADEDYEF", "settings": "relative topoisomerase I inhibition levels, previously determined, six levels (0 - 5, +++++ = 5); cited from earlier work"}}, "note": "Where two headings read alike, the source gives them in different places."}
{"smiles": "COc1ccc2c(c1)C(=O)c1c-2n(CCCN2CCOCC2)c(=O)c2ccccc12", "note": "[Compound 19]", "values": [{"measurement": "GI50", "setting": "[1]; 786-0, Renal Cancer, 786-0", "result": 1.78, "unit": "µM"}, {"measurement": "GI50", "setting": "[1]; A498, Renal Cancer, A498", "result": 1.64, "unit": "µM"}, {"measurement": "GI50", "setting": "[1]; A549, Non-Small Cell Lung Cancer, A549/ATCC", "result": 1.96, "unit": "µM"}, {"measurement": "GI50", "setting": "[1]; ACHN, Renal Cancer, ACHN", "result": 1.67, "unit": "µM"}, {"measurement": "GI50", "setting": "[1]; BT-549, Breast Cancer, BT-549", "result": 4.11, "unit": "µM"}, {"measurement": "GI50", "setting": "[1]; CAKI-1, Renal Cancer, CAKI-1", "result": 3.17, "unit": "µM"}, {"measurement": "GI50", "setting": "[1]; CCRF-CEM, Leukemia, CCRF-CEM", "result": 1.57, "unit": "µM"}, {"measurement": "GI50", "setting": "[1]; COLO 205, Colon Cancer, COLO 205", "result": 1.74, "unit": "µM"}, {"measurement": "GI50", "setting": "[1]; DU-145, Prostate Cancer, DU-145", "result": 2.31, "unit": "µM"}, {"measurement": "GI50", "setting": "[1]; EKVX, Non-Small Cell Lung Cancer, EKVX", "result": 4.91, "unit": "µM"}, {"measurement": "GI50", "setting": "[1]; HCC 2998, Colon Cancer, HCC-2998", "result": 3.44, "unit": "µM"}, {"measurement": "GI50", "setting": "[1]; HCT-15, Colon Cancer, HCT-15", "result": 2.9, "unit": "µM"}, {"measurement": "GI50", "setting": "[1]; HCT-116, Colon Cancer, HCT-116", "result": 1.27, "unit": "µM"}, {"measurement": "GI50", "setting": "[1]; HL-60, Leukemia, HL-60(TB)", "result": 4.28, "unit": "µM"}, {"measurement": "GI50", "setting": "[1]; HOP-62, Non-Small Cell Lung Cancer, HOP-62", "result": 1.41, "unit": "µM"}, {"measurement": "GI50", "setting": "[1]; HOP-92, Non-Small Cell Lung Cancer, HOP-92", "result": 4.47, "unit": "µM"}, {"measurement": "GI50", "setting": "[1]; HT-29, Colon Cancer, HT29", "result": 2.48, "unit": "µM"}, {"measurement": "GI50", "setting": "[1]; Hs-578T, Breast Cancer, HS 578T", "result": 8.95, "unit": "µM"}, {"measurement": "GI50", "setting": "[1]; K562, Leukemia, K-562", "result": 5.13, "unit": "µM"}, {"measurement": "GI50", "setting": "[1]; KM12, Colon Cancer, KM12", "result": 3.8, "unit": "µM"}, {"measurement": "GI50", "setting": "[1]; LOX IMVI, Melanoma, LOX IMVI", "result": 1.34, "unit": "µM"}, {"measurement": "GI50", "setting": "[1]; Leukemia, SR", "result": 0.29, "unit": "µM"}, {"measurement": "GI50", "setting": "[1]; MCF7, Breast Cancer, MCF7", "result": 0.2, "unit": "µM"}, {"measurement": "GI50", "setting": "[1]; MDA-MB-231, Breast Cancer, MDA-MB-231/ATCC", "result": 11.2, "unit": "µM"}, {"measurement": "GI50", "setting": "[1]; MDA-MB-435, Melanoma, MDA-MB-435", "result": 4.67, "unit": "µM"}, {"measurement": "GI50", "setting": "[1]; MOLT-4, Leukemia, MOLT-4", "result": 0.87, "unit": "µM"}, {"measurement": "GI50", "setting": "[1]; Malme-3M, Melanoma, MALME-3M", "result": 4.49, "unit": "µM"}, {"measurement": "GI50", "setting": "[1]; Melanoma, M14", "result": 2.85, "unit": "µM"}, {"measurement": "GI50", "setting": "[1]; NCI-H23, Non-Small Cell Lung Cancer, NCI-H23", "result": 3.1, "unit": "µM"}, {"measurement": "GI50", "setting": "[1]; NCI-H226, Non-Small Cell Lung Cancer, NCI-H226", "result": 2.79, "unit": "µM"}, {"measurement": "GI50", "setting": "[1]; NCI-H322M, Non-Small Cell Lung Cancer, NCI-H322M", "result": 5.44, "unit": "µM"}, {"measurement": "GI50", "setting": "[1]; NCI-H460, Non-Small Cell Lung Cancer, NCI-H460", "result": 0.44, "unit": "µM"}, {"measurement": "GI50", "setting": "[1]; NCI-H522, Non-Small Cell Lung Cancer, NCI-H522", "result": 1.06, "unit": "µM"}, {"measurement": "GI50", "setting": "[1]; OVCAR-3, Ovarian Cancer, OVCAR-3", "result": 2.7, "unit": "µM"}, {"measurement": "GI50", "setting": "[1]; OVCAR-4, Ovarian Cancer, OVCAR-4", "result": 3.13, "unit": "µM"}, {"measurement": "GI50", "setting": "[1]; OVCAR-5, Ovarian Cancer, OVCAR-5", "result": 6.31, "unit": "µM"}, {"measurement": "GI50", "setting": "[1]; OVCAR-8, Ovarian Cancer, OVCAR-8", "result": 3.11, "unit": "µM"}, {"measurement": "GI50", "setting": "[1]; Ovarian Cancer, NCl/ADR-RES", "result": 3.14, "unit": "µM"}, {"measurement": "GI50", "setting": "[1]; Prostate Cancer, PC-3", "result": 19.5, "unit": "µM"}, {"measurement": "GI50", "setting": "[1]; RPMI-8226, Leukemia, RPMI-8226", "result": 1.85, "unit": "µM"}, {"measurement": "GI50", "setting": "[1]; RXF 393, Renal Cancer, RXF 393", "result": 7.16, "unit": "µM"}, {"measurement": "GI50", "setting": "[1]; Renal Cancer, U0-31", "result": 0.42, "unit": "µM"}, {"measurement": "GI50", "setting": "[1]; SF-268, CNS Cancer, SF-268", "result": 1.75, "unit": "µM"}, {"measurement": "GI50", "setting": "[1]; SF-295, CNS Cancer, SF-295", "result": 1.27, "unit": "µM"}, {"measurement": "GI50", "setting": "[1]; SF-539, CNS Cancer, SF-539", "result": 1.96, "unit": "µM"}, {"measurement": "GI50", "setting": "[1]; SK-MEL-2, Melanoma, SK-MEL-2", "result": 19.5, "unit": "µM"}, {"measurement": "GI50", "setting": "[1]; SK-MEL-5, Melanoma, SK-MEL-5", "result": 1.5, "unit": "µM"}, {"measurement": "GI50", "setting": "[1]; SK-MEL-28, Melanoma, SK-MEL-28", "result": 8.03, "unit": "µM"}, {"measurement": "GI50", "setting": "[1]; SK-OV-3, Ovarian Cancer, SK-OV-3", "result": 2.67, "unit": "µM"}, {"measurement": "GI50", "setting": "[1]; SN12C, Renal Cancer, SN12C", "result": 4.1, "unit": "µM"}, {"measurement": "GI50", "setting": "[1]; SNB-19, CNS Cancer, SNB-19", "result": 2.13, "unit": "µM"}, {"measurement": "GI50", "setting": "[1]; SNB-75, CNS Cancer, SNB-75", "result": 3.63, "unit": "µM"}, {"measurement": "GI50", "setting": "[1]; SW-620, Colon Cancer, SW-620", "result": 1.68, "unit": "µM"}, {"measurement": "GI50", "setting": "[1]; T47D, Breast Cancer, T-47D", "result": 1.07, "unit": "µM"}, {"measurement": "GI50", "setting": "[1]; TK-10, Renal Cancer, TK-10", "result": 4.63, "unit": "µM"}, {"measurement": "GI50", "setting": "[1]; U-251, CNS Cancer, U251", "result": 1.72, "unit": "µM"}, {"measurement": "GI50", "setting": "[1]; UACC-62, Melanoma, UACC-62", "result": 1.58, "unit": "µM"}, {"measurement": "GI50", "setting": "[1]; UACC-257, Melanoma, UACC-257", "result": 6.6, "unit": "µM"}, {"measurement": "mean GI50 across NCI-60 panel (MGM)", "setting": "[1]; average of GI50 values across the entire panel of NCI-60 cancer cell lines", "result": 2.57, "unit": "µM"}, {"measurement": "minimal effective concentration", "setting": "[2]", "result": 2, "unit": "µM"}, {"measurement": "Top1 Inhibiton", "setting": "[3]", "result": "+++ (strong inhibition, +++, MYC expression inhibited at 0.5 to 1.0 μM)"}]}
